Assay results reported in patent US8927717B1, “Thiochromeno[2,3-c]quinolin-12-one derivatives, preparation method and application thereof” (National Defense Medical Center, priority 2014, dated 2015).

How the values were obtained:
Type in all cases: cell-based
SK-MEL-28 = details: SK-MEL-28; five dose
SK-MEL-5 = details: SK-MEL-5
OVCAR-5 = details: OVCAR-5
OVCAR-8 = details: OVCAR-8
NCI/ADR-RES = details: NCI/ADR-RES
SK-OV-3 = details: SK-OV-3
A498 = details: A498
RXF 393 = details: RXF 393
SN12C = details: SN12C
TK-10 = details: TK-10
PC-3 = details: PC-3
DU-145 = details: DU-145
MCF7 = details: MCF7
MDA-MB-231/ATCC = details: MDA-MB-231/ATCC
HS 578T = details: HS 578T
BT-549 = details: BT-549
T-47D = details: T-47D
60 cancer cell lines = assay: NCI 60-cell screen, SRB, whole panel (mean, delta, range)
[1] = Homo sapiens, five dose, read-out: LC50 (the source's name)

SMILES: O=c1c2cc(Cl)ccc2sc2c(NCCCNCCO)nc3ccccc3c12 [Compound N19, 10-Chloro-6-((3-((2-hydroxyethyl)amino)propyl)amino)-12H-thiochromeno[2,3-c]quinolin-12-one]
- TGI (SK-MEL-28): 3560 nM
- GI50 (SK-MEL-5; Homo sapiens, five dose): 1600 nM
- Growth percent (SK-MEL-5; 10^−5 molar): 62.02%
- TGI (SK-MEL-5; five dose): 3000 nM
- GI50 (OVCAR-5; Homo sapiens, five dose): 1630 nM
- CC50 (OVCAR-5; [1]): 7530 nM
- Growth percent (OVCAR-5; 10^−5 molar): −65.05%
- TGI (OVCAR-5; five dose): 3500 nM
- GI50 (OVCAR-8; Homo sapiens, five dose): 1750 nM
- Growth percent (OVCAR-8; 10^−5 molar): 9.89%
- TGI (OVCAR-8; five dose): 3320 nM
- GI50 (NCI/ADR-RES; Homo sapiens, five dose): 1820 nM
- Growth percent (NCI/ADR-RES; 10^−5 molar): 26.35%
- TGI (NCI/ADR-RES; five dose): 3630 nM
- GI50 (SK-OV-3; Homo sapiens, five dose): 1680 nM
- CC50 (SK-OV-3; [1]): 6800 nM
- Growth percent (SK-OV-3; 10^−5 molar): 76.48%
- TGI (SK-OV-3; five dose): 3380 nM
- Growth percent (A498; 10^−5 molar): 61.88%
- TGI (A498; five dose): 3620 nM
- GI50 (A498; Homo sapiens, five dose): 1270 nM
- CC50 (A498; [1]): 15000 nM
- GI50 (RXF 393; Homo sapiens, five dose): 1640 nM
- Growth percent (RXF 393; 10^−5 molar): 43.67%
- TGI (RXF 393; five dose): 3200 nM
- GI50 (SN12C; Homo sapiens, five dose): 1700 nM
- CC50 (SN12C; [1]): 6800 nM
- Growth percent (SN12C; 10^−5 molar): 78.75%
- TGI (SN12C; five dose): 3390 nM
- GI50 (TK-10; Homo sapiens, five dose): 2090 nM
- CC50 (TK-10; [1]): 6690 nM
- Growth percent (TK-10; 10^−5 molar): −92.61%
- TGI (TK-10; five dose): 3740 nM
- GI50 (PC-3; Homo sapiens, five dose): 1510 nM
- CC50 (PC-3; [1]): 5660 nM
- Growth percent (PC-3; 10^−5 molar): −26.98%
- TGI (PC-3; five dose): 2920 nM
- Growth percent (DU-145; 10^−5 molar): −71.03%
- TGI (DU-145; five dose): 3310 nM
- GI50 (DU-145; Homo sapiens, five dose): 1760 nM
- CC50 (DU-145; [1]): 6250 nM
- GI50 (MCF7; Homo sapiens, five dose): 1050 nM
- Growth percent (MCF7; 10^−5 molar): −72.49%
- TGI (MCF7; five dose): 2600 nM
- GI50 (MDA-MB-231/ATCC; Homo sapiens, five dose): 1360 nM
- CC50 (MDA-MB-231/ATCC; [1]): 6020 nM
- Growth percent (MDA-MB-231/ATCC; 10^−5 molar): −66.53%
- TGI (MDA-MB-231/ATCC; five dose): 2860 nM
- Growth percent (HS 578T; 10^−5 molar): 64.69%
- TGI (HS 578T; five dose): 3530 nM
- GI50 (HS 578T; Homo sapiens, five dose): 1290 nM
- CC50 (HS 578T; [1]): 9640 nM
- Growth percent (BT-549; 10^−5 molar): 98.48%
- TGI (BT-549; five dose): 3150 nM
- GI50 (BT-549; Homo sapiens, five dose): 1670 nM
- GI50 (T-47D; Homo sapiens, T47D, five dose): 1500 nM
- Growth percent (T-47D; 10^−5 molar): 16.26%
- TGI (T-47D; five dose): 3430 nM
- GI50 (60 cancer cell lines; 60 cell, mean over panel, five dose): 1660 nM
- CC50 (60 cancer cell lines; 60 cell, mean over panel, five dose, read-out: LC50, Mean): 9550 nM
- Growth percent, Delta (60 cancer cell lines; delta over panel, 10^−5 molar): 75.63%
- Growth percent, Mean (60 cancer cell lines; mean over panel, 10^−5 molar): −21.33%
- TGI, Mean (60 cancer cell lines; mean over panel, five dose): 3390 nM
- Growth percent, Range (60 cancer cell lines; range over panel, 10^−5 molar): 195.44%
